According to patent US20050107450A1, “Dosing regimen for ppar-gamma activators” (priority 2001, published 2005):
Where two headings read alike, the source gives them in different places.

What was measured:
[1] = system: Normal Han Wistar female adult rats; assay: Study 2: rat model of PPAR-gamma activator induced cardiovascular changes leading to fluid retention and edema; assay type: in vivo
Procedure: Rat Model of PPAR-Gamma Activator Induced Cardiovascular Changes Leading to Fluid Retention and Edema
Normal Han Wistar female adult rats were chronically instrumented for measurement of cardiac output, blood pressure and total peripheral resistance and orally dosed (8 mg/kg, bid) with PPAR-gamma activator or vehicle (PEG400, 1 ml/kg) for 10 days. Data were collected for 7 days prior to the start of dosing, for 10 days of dosing, and for 7 days after discontinuation of dosing. […] The decrease in total peripheral resistance is believed to be the initial pharmacodynamic effect of PPAR-gamma activators leading to fluid retention and edema.

[2] = system: Normal Han Wistar female adult rats; assay: Study 1: rat model of PPAR-gamma activator induced fluid retention/edema; assay type: in vivo; conditions: 8 mg/kg bid oral, 21 days, compared with vehicle treated control rats
Procedure: Rat Model of PPAR-Gamma Activator Induced Fluid Retention/Edema
Normal Han Wistar female adult rats were housed in metabolic cages and orally dosed (8 mg/kg, bid) with PPAR-gamma activator or vehicle (PEG400, 1 ml/kg) for 21 days. Electrolyte and water balance, plasma volume, hematocrit, and interstitial fluid volume were measured. […] In addition, there was a 50% increase in interstitial fluid volume, correlating to an edematous state.

[3] = system: ZDF rats; conditions: for heart weight/body weight ratio versus normal range: literature normal 0.23 (0.19-0.25); for rats with continued glycemic control (non-fasted plasma glucose less than 250 mg/dl): five weeks, of 8 rats
Procedure: Less Than Daily Dosing with PPAR-gamma Activator
Three groups of 8 plasma glucose-matched ZDF rats with non-fasted glucose values greater than 250 mg/dl were dosed with PPAR-gamma activator. During the study plasma glucose and serum albumin were measured weekly, HbA1c was measured every other week, and heart weights and body weights were measured terminally. Reduction of plasma glucose and HbA1c are markers for anti-diabetic efficacy (glycemic control). Decreased plasma albumin concentration is a marker for plasma volume expansion or hemodilution. The heart weight-to-body weight ratio is a marker for increased cardiac output secondary to volume expansion.
All three groups were initially dosed with PPAR-gamma activator for one week at 5 mg/kg twice daily, in order to achieve glycemic control as shown by plasma glucose less than 250 mg/dl, and volume expansion as shown by reduced serum albumin.
Following the first week one group (Group BID) was continued on the daily dosing regimen while the other two were moved to less than daily dosing. Group BID continued to be dosed at 5 mg/kg twice daily, Group MWF was dosed at 10 mg/kg per day three times weekly (Monday/Wednesday/Friday), and Group MF was dosed at 10 mg/kg per day twice weekly (Monday/Friday). These three dosing regimens were continued for five weeks.

[4] = system: Zucker Diabetic Fatty (ZDF) rats
Procedure: Model of PPAR-Gamma Activator Induced Efficacy/Glycemic Control
Two glucose-matched groups (n=6/group) of Zucker Diabetic Fatty (ZDF) rats, 7-8 weeks of age, were treated with vehicle (n-methylglucamine, 0.05M, 1 ml/kg, p.o.) or PPAR-gamma activator (5 mg/kg, bid).

[5] = after dosing was discontinued (10 days of 8 mg/kg bid)

SMILES: Cc1oc(-c2ccccc2)nc1CCOc1ccc(C[C@H](Nc2ccccc2C(=O)c2ccccc2)C(=O)O)cc1 [GI262570, farglitazar]
- onset of change in total peripheral resistance and cardiac output after the initial dose ([1]; 8 mg/kg bid oral): within six hours
- time at which total peripheral resistance and cardiac output changes reached steady state ([1]; 8 mg/kg bid oral): by treatment day four
- cardiac output ([1]; 8 mg/kg bid oral, 10 days): increased
- total peripheral resistance ([1]; 8 mg/kg bid oral, 10 days): decreased
- full recovery of total peripheral resistance and cardiac output [1, 5]: after four days
- time until total peripheral resistance and cardiac output began to return toward control values [1, 5]: ≤ 24 h
- decrease in hematocrit [2]: 6%
- electrolyte and water retention [2]: sustained increase
- increase in interstitial fluid volume [2]: 50%
- increase in plasma volume [2]: 6%
- heart weight/body weight ratio versus normal range ([3]; BID dose group): increased beyond the normal range
- increase in terminal heart weight to body weight ratio ([3]; BID group compared to the MWF and MF dose groups): 13%
- serum albumin concentration versus pre-treatment baseline ([3]; BID group, throughout dosing): remained below the pre-treatment baseline value
- rats with continued glycemic control (non-fasted plasma glucose less than 250 mg/dl) ([3]; Group BID, 5 mg/kg twice daily): 8
- rats with continued glycemic control (non-fasted plasma glucose less than 250 mg/dl) ([3]; Group MF, 10 mg/kg per day twice weekly): 5
- rats with continued glycemic control (non-fasted plasma glucose less than 250 mg/dl) ([3]; Group MWF, 10 mg/kg per day three times weekly): 6
- plasma glucose during the last two weeks of study ([3]; MWF and MF dose groups (11 responding rats) versus BID, still well below pre-dosing levels): slightly higher
- heart weight/body weight ratio versus normal range ([3]; MWF and MF dose groups): within normal ranges
- serum albumin concentration versus pre-treatment baseline ([3]; MWF and MF groups, by day 14 of reduced frequency dosing): returned to and remained at pre-treatment baseline values
- mean non-fasted plasma glucose ([3]; after initial week of 5 mg/kg twice daily, all rats, pre-treatment 321 mg/dl): 138 mg/dL
- serum albumin concentration ([3]; after initial week of 5 mg/kg twice daily, all rats, pre-treatment 3.8 gm/dl): 3.5 gm/dl
- HbA1c ([3]; all 19 animals with glycemic control (BID, MWF, MF groups)): below 6%
- average non-fasted plasma glucose ([4]; 5 mg/kg bid, after four weeks, at the time dosing was discontinued, vehicle 464 mg/dl): 154 mg/dL
- fluid status of treated rats ([4]; 5 mg/kg bid, after four weeks, n=6): volume expanded and two were overtly edematous
- hematocrit, end-of-treatment value ([4]; 5 mg/kg bid, four weeks): 47%
- average plasma glucose ([4]; 10 days after discontinuation of 5 mg/kg bid treatment, vehicle 462 mg/dl): 175 mg/dL
- time for hematocrit to return to control value ([4]; after discontinuation of 5 mg/kg bid): ≤ 3 days
- hematocrit after discontinuation (control value) ([4]; within 3 days after discontinuation of 5 mg/kg bid): 52%
